Reference: US5843947A, “N-pyridyl carboxamides and derivatives” (priority 1994, dated 1998)

Columns and labels:
[1] = test system: chronic inflammation of the ear induced by repeated phorbol ester; settings: 15 days after repeated application of phorbol ester; cited from earlier work
[2] = Study of the diuretic activity (urinary volume); assay type: in vivo, rats; settings: 6 hours
[3] = test system: acute cutaneous inflammation (phorbol ester ear edema); test: Activity against acute cutaneous inflammation (topical), phorbol ester ear edema; assay type: in vivo; settings: mouse, 6 hours
Experimental: Phorbol ester (phorbol 12-myristate 13-acetate) (5 μg) is applied topically to the front and back surfaces of the right ear of the mouse 30 minutes after application of the vehicle (95% ethanol) or of the agent (1 mg). The difference in thickness between the right ear and the left ear (edema) is measured 6 hours after application.
The percentage of inhibition of cutaneous inflammation relative to a group of animals treated topically with 95% ethanol is calculated. The compound of Example 1, at a rate of 1 mg/ear, allows a 63% reduction of the inflammation. Indomethacin, taken as a reference, at a dose of 2.5 mg/ear, allows a 67% reduction of inflammation.

[4] = test system: arthritis induced by killed Mycobacterium tuberculosis (complete Freund adjuvant); test: Study of an activity of anti-arthritic type in rats (complete Freund adjuvant); assay type: in vivo, Lewis rats; settings: rat, oral, days 1 to 5; day 18
Experimental: Groups of 5 male or female Lewis rats weighing from 130 to 150 g are used. A suspension of 0.3 mg of killed Mycobacterium tuberculosis in 0.1 cm^3 of mineral oil (complete Freund adjuvant, CFA) is administered into the subplantar region of the right hind foot on day 1. The volumes of the hind feet are measured by water displacement on days 0, 1, 5, 14 and 18. The rats are weighed on days 0 and 18. The test products are suspended in carboxymethylcellulose and administered orally for 5 consecutive days, on days 1 to 5. In parallel, a control group is used in order to eliminate artefacts resulting from the handling of the animals. A group treated with a reference product (hydrocortisone) allows the test to be validated.

[5] = test system: chronic inflammation of the ear induced by repeated phorbol ester; test: Curative activity after repeated topical application in chronic inflammation of the ear, repeated phorbol ester (PMA) for 15 days (model of psoriasis); assay type: in vivo; settings: mouse, 0.5 mg/ear
Experimental: Phorbol ester (1 μg) is applied topically to the front and back surfaces of the right ear of the mouse on days 0, 2, 4, 7, 9, 11 and 14. The vehicle or the agent is applied topically twice daily, on days 7, 8, 9, 10, 11, 12, 13 and 14, and once on the 15th day. On days 7, 9, 11 and 14 the vehicle or the agent is applied 30 minutes before and after the phorbol ester.
Two parameters are measured
1. Difference in thickness between the right and left ears every day and on days 0, 2, 4, 7, 9, 11 and 14, 6 hours after repeated application of the phorbol ester.
After repeated application of phorbol ester and after 15 days, the thickness reflects not only the presence of an edema and of an infiltration of lymphocyte and monocyte-macrophage neutrophil type cells in the skin tissue (inflammation) but also of an increase in the thickness of the epidermis (epidermal hyperplasia secondary to a proliferation of keratinocytes). […]
The products of the invention, in topical, curative and repeated use, inhibit, between the 8th and 10th days, the chronic inflammation of the right ear (measured, on the one hand, by the difference in thickness between the right ear and the left ear, and, on the other hand, by the difference in weight between the two ears after sacrificing the animal on the 15th day) induced by a repeated application of phorbol ester in mice.

[6] = test system: inflammation induced by carrageenan (plantar edema); test: Anti-inflammatory activity: plantar edema using carrageenan; assay type: in vivo, Sprague-Dawley rats; settings: rat, compounds 10 mg/kg oral 30 min before carrageenan, indomethacin 10 mg/kg
Experimental: The method used is that of plantar edema using carrageenan. The procedure used is as follows: 1% carrageenan in 0.2 ml of […] is administered into the sole of the right foot of Sprague-Dawley rats weighing 250 g on average. The volume of the paw is measured by plethysmography after one hour and after two hours.
The compounds of the invention are administered in a 10 mg/kg oral dose 30 minutes before the administration of carrageenan. A saline solution is injected into the sole of the left foot, which serves as a control.
The compounds of the invention make it possible to reduce the increase in volume of the right foot relative to that of the left foot (Table 1).

Row | Molecule | topical activity in the chronic model (in words) [1] | Percentage of inhibition, 1 h [6] | Percentage of inhibition, 2 h [6] | further results
1 | CN1C(C(=O)Nc2ccccn2)=C(O)c2ccccc2S1(=O)=O [piroxicam] | topically inactive |  |  | 
2 | Cc1cc(C)nc(NC(=NN)c2cnccn2)c1 [Example 25, N-(4,6-DIMETHYL-2-PYRIDYL)-2-PYRAZINECARBOXAMIDE HYDRAZONE] |  |  |  | increase of urinary volume (factor relative to an untreated rat) ([2]; 3 mg/kg p.o.): 2.8
3 | Cc1cc(C)nc(NC(=O)Cc2cccs2)c1 [Example 1, N-(4,6-DIMETHYL-2-PYRIDYL)-2-THIENYLACETAMIDE] |  |  |  | reduction of the inflammation ([3]; 1 mg/ear): 63%; reduction in the volume of the right hind foot [4]: 47%
4 | Cc1nc(N)c(NC(=O)Cc2ccsc2)c(C)c1Br [Example 17, N-(2-AMINO-5-BROMO-4,6-DIMETHYL-3-PYRIDYL)-3-THIENYLACETAMIDE] |  |  |  | reduction of the difference in thickness between the two ears [5]: 60%; reduction of the weight difference ([5]; ear punches): 38%
5 | COc1ccc2c(c1)c(CC(=O)O)c(C)n2C(=O)c1ccc(Cl)cc1 [Indomethacin, reference compound] | topically inactive | 24% | 64% | reduction of inflammation, reference ([3]; 2.5 mg/ear): 67%
6 | cyclosporin A | topically active |  |  | 
7 | Cc1cc(C)nc(NC(=O)Cc2cccs2)c1 [drawing 58] |  | 63% | 70% | 
8 | NS(=O)(=O)c1cc(C(=O)O)c(NCc2ccco2)cc1Cl [furosemide, reference compound] |  |  |  | increase of urinary volume (factor), reference ([2]; rat, 5 mg/kg p.o.): 3
9 | Cc1cc(C)nc(NC(=O)c2cnccn2)c1 |  | 55% | 64% | 
